US11667607B1 (ZYLORION HEALTH INC., priority 2022, dated 2023)

What was measured:
[1] = Dynamic vapor sorption (DVS) moisture sorption isotherm, solid re-measured by HT-XRPD; assay type: physicochemical
Experimental: Moisture sorption isotherms were collected on a DVS Adventure system from Surface Measurement Systems (London, UK). Sample size was circa 10 mg of solid material. A full sorption and desorption isotherm was recorded by varying the relative humidity from 40-95-0-40% in steps of 10% at a constant temperature of 25° C. Weight equilibration per step was set at dm/dt of 0.002%/min. Afterwards the sample was measured by HT-XRPD.

[2] = Exposure of solids to 2 days at 40° C./75% RH (AAC), remeasured by XRPD; assay type: physicochemical; settings: Table 1, lyophilization/recrystallization; ambient-dried solid after 2 days 40° C./75% RH; crystalline; pc = poor crystalline

CCc1cc(/C(C)=N/OCc2ccc(C3CCCCC3)c(C(F)(F)F)c2)ccc1CN1CC(C(=O)O)C1.CCc1cc(/C(C)=N/OCc2ccc(C3CCCCC3)c(C(F)(F)F)c2)ccc1CN1CC(C(=O)O)C1.O=C(O)/C=C/C(=O)O [crystalline Form A]
mass uptake at 80% RH ([1]; DVS, 25° C.): 2.4%
total mass difference between 0-95% RH ([1]; DVS, 25° C., RH cycle 40-95-0-40%): 3.6%
hygroscopicity according to the EP hygroscopicity classification ([1]; DVS, based on mass uptake at 80% RH): moderately hygroscopic
physical stability after the sorption-desorption cycle (XRPD of solid recovered after DVS) ([1]; after DVS cycle 40-95-0-40% RH, 25° C.): physically stable
HT-XRPD AAC-Amb-dried (solid form after AAC) [2]: Form A
